In ChEMBL document CHEMBL3046322, “Insect growth regulatory effects by diterpenes from Calceolaria talcana Grau & Ehrhart (Calceolariaceae: Scrophulariaceae) against Spodoptera frugiperda and Drosophila melanogaster” (2013):
Calls of active or inactive are those of the source. The calls are words filed in the database; no cut-off is given here.

What was measured:
Spodoptera frugiperda [1] = assay: Insecticidal activity against first-instar larval stage of Spodoptera frugiperda (fall armyworm) fed with compound incorporated diet assessed as mortality at 35 ug/ml after 21 days (reference value: 5.6%); format: functional; settings: 504 h
Spodoptera frugiperda [2] = assay: Growth inhibitory activity against first-instar larval stage of Spodoptera frugiperda (fall armyworm) fed with compound incorporated diet assessed as length gained at 35 ug/ml after 21 days (reference value: 100%); format: functional
Spodoptera frugiperda [3] = assay: Growth inhibitory activity against first-instar larval stage of Spodoptera frugiperda (fall armyworm) fed with compound incorporated diet assessed as weight gained at 35 ug/ml after 21 days (reference value: 100%); format: functional
Spodoptera frugiperda [4] = assay: Insecticidal activity against first-instar larval stage of Spodoptera frugiperda (fall armyworm) fed with compound incorporated diet assessed as mortality at 10 ug/ml after 7 days (reference value: 5.6%); format: functional; settings: 168 h
Spodoptera frugiperda [5] = assay: Growth inhibitory activity against po dosed Spodoptera frugiperda (fall armyworm) larvae assessed as promotion of apolysis to fifth instar with ecdysis inhibition at 5 to 20 ug/ml; format: functional, organism-based
Spodoptera frugiperda [6] = assay: Growth inhibitory activity against Spodoptera frugiperda (fall armyworm) larvae fed with compound containing diet assessed as growth index at 5 ug/ml (reference value: 0.95 +/-0.02 no_unit); format: functional
Drosophila melanogaster [7] = assay: Insecticidal activity against Drosophila melanogaster larvae fed with compound incorporated diet assessed as mortality at 20 ug/ml after 72 hr by not choice test (reference value: 0%); format: functional
Spodoptera frugiperda [8] = assay: Growth inhibitory activity against first-instar larval stage of Spodoptera frugiperda (fall armyworm) fed with compound incorporated diet assessed as weight gained at 35 ug/ml after 7 days (reference value: 100%); format: functional; design: scale not given: the % may be the effect or the level left
Spodoptera frugiperda [9] = assay: Insecticidal activity against first-instar larval stage of Spodoptera frugiperda (fall armyworm) fed with compound incorporated diet assessed as mortality at 50 ug/ml after 7 days (reference value: 5.6%); format: functional; settings: 168 h
Spodoptera frugiperda [10] = assay: Insecticidal activity against first-instar larval stage of Spodoptera frugiperda (fall armyworm) fed with compound incorporated diet assessed as mortality at 35 ug/ml after 7 days (reference value: 5.6%); format: functional; settings: 168 h
Spodoptera frugiperda [11] = assay: Growth inhibitory activity against Spodoptera frugiperda (fall armyworm) larvae fed with compound containing diet assessed as reduction in adult emergence at 20 ug/ml; format: functional
Spodoptera frugiperda [12] = assay: Insecticidal activity against first-instar larval stage of Spodoptera frugiperda (fall armyworm) fed with compound incorporated diet assessed as mortality at 20 ug/ml after 21 days (reference value: 5.6%); format: functional; settings: 504 h
Spodoptera frugiperda [13] = assay: Growth inhibitory activity against Spodoptera frugiperda (fall armyworm) larvae fed with compound containing diet assessed as reduction in adult emergence at 35 ug/ml; format: functional
Spodoptera frugiperda [14] = assay: Growth inhibitory activity against first-instar larval stage of Spodoptera frugiperda (fall armyworm) fed with compound incorporated diet assessed as length gained at 10 ug/ml after 21 days (reference value: 100%); format: functional
Spodoptera frugiperda [15] = assay: Acute toxicity against last larval stage of Spodoptera frugiperda (fall armyworm) assessed as mortality applied topically onto abdomen measured after 7 days; format: functional; settings: topical, 168 h
Spodoptera frugiperda [16] = assay: Insecticidal activity against first-instar larval stage of Spodoptera frugiperda (fall armyworm) fed with compound incorporated diet assessed as mortality at 10 ug/ml after 21 days (reference value: 5.6%); format: functional; settings: 504 h
Spodoptera frugiperda [17] = assay: Growth inhibitory activity against Spodoptera frugiperda (fall armyworm) larvae fed with compound containing diet assessed as relative growth index at 5 ug/ml (reference value: 1.0 no_unit); format: functional
Drosophila melanogaster [18] = assay: Insecticidal activity against Drosophila melanogaster larvae fed with compound incorporated diet assessed as mortality at 10 ug/ml after 72 hr by not choice test (reference value: 0%); format: functional
Spodoptera frugiperda [19] = assay: Growth inhibitory activity against first-instar larval stage of Spodoptera frugiperda (fall armyworm) fed with compound incorporated diet assessed as weight gained at 10 ug/ml after 21 days (reference value: 100%); format: functional
Spodoptera frugiperda [20] = assay: Growth inhibitory activity against first-instar larval stage of Spodoptera frugiperda (fall armyworm) fed with compound incorporated diet assessed as weight gained at 20 ug/ml after 7 days (reference value: 100%); format: functional; design: scale not given: the % may be the effect or the level left
Spodoptera frugiperda [21] = assay: Growth inhibitory activity against first-instar larval stage of Spodoptera frugiperda (fall armyworm) fed with compound incorporated diet assessed as length gained at 5 ug/ml after 21 days (reference value: 100%); format: functional
Spodoptera frugiperda [22] = assay: Growth inhibitory activity against Spodoptera frugiperda (fall armyworm) larvae fed with compound containing diet assessed as reduction in pupae weight at 25 ug/ml; format: functional, organism-based
Spodoptera frugiperda [23] = assay: Growth inhibitory activity against first-instar larval stage of Spodoptera frugiperda (fall armyworm) fed with compound incorporated diet assessed as weight gained at 5 ug/ml after 7 days (reference value: 100%); format: functional; design: scale not given: the % may be the effect or the level left
Spodoptera frugiperda [24] = assay: Growth inhibitory activity against first-instar larval stage of Spodoptera frugiperda (fall armyworm) fed with compound incorporated diet assessed as length gained at 50 ug/ml after 7 days (reference value: 100%); format: functional
Spodoptera frugiperda [25] = assay: Insecticidal activity against first-instar larval stage of Spodoptera frugiperda (fall armyworm) fed with compound incorporated diet assessed as mortality at 5 ug/ml after 21 days (reference value: 5.6%); format: functional; settings: 504 h
Spodoptera frugiperda [26] = assay: Growth inhibitory activity against Spodoptera frugiperda (fall armyworm) larvae fed with compound containing diet assessed as growth index at 35 ug/ml (reference value: 0.95 +/-0.02 no_unit); format: functional
Spodoptera frugiperda [27] = assay: Growth inhibitory activity against first-instar larval stage of Spodoptera frugiperda (fall armyworm) fed with compound incorporated diet assessed as weight gained at 10 ug/ml after 7 days (reference value: 100%); format: functional; design: scale not given: the % may be the effect or the level left
Spodoptera frugiperda [28] = assay: Growth inhibitory activity against Spodoptera frugiperda (fall armyworm) larvae fed with compound containing diet assessed as relative growth index at 20 ug/ml (reference value: 1.0 no_unit); format: functional
Spodoptera frugiperda [29] = assay: Growth inhibitory activity against po dosed fourth-instar larvae of Spodoptera frugiperda (fall armyworm) assessed as proportion of prothetely appearance of precocious pupal structure in larvae after 48 to 72 hr; format: functional; design: scale not given: the % may be the effect or the level left
Spodoptera frugiperda [30] = assay: Insecticidal activity against first-instar larval stage of Spodoptera frugiperda (fall armyworm) fed with compound incorporated diet assessed as mortality at 20 ug/ml after 7 days (reference value: 5.6%); format: functional; settings: 168 h
Spodoptera frugiperda [31] = assay: Acute toxicity against last larval stage of Spodoptera frugiperda (fall armyworm) assessed as survival at 5 ug/ml applied topically onto abdomen measured after 24 hr (reference value: 98.8 +/-3.5%); format: functional
Drosophila melanogaster [32] = assay: Insecticidal activity against Drosophila melanogaster larvae fed with compound incorporated diet assessed as mortality at 50 ug/ml after 72 hr by not choice test (reference value: 0%); format: functional
Spodoptera frugiperda [33] = assay: Growth inhibitory activity against first-instar larval stage of Spodoptera frugiperda (fall armyworm) fed with compound incorporated diet assessed as length gained at 20 ug/ml after 21 days (reference value: 100%); format: functional; design: scale not given: the % may be the effect or the level left
Spodoptera frugiperda [34] = assay: Growth inhibitory activity against first-instar larval stage of Spodoptera frugiperda (fall armyworm) fed with compound incorporated diet assessed as length gained at 5 ug/ml after 7 days (reference value: 100%); format: functional; design: scale not given: the % may be the effect or the level left
Spodoptera frugiperda [35] = assay: Growth inhibitory activity against Spodoptera frugiperda (fall armyworm) larvae fed with compound containing diet assessed as reduction in survival pupation at >10 ug/ml; format: functional
Spodoptera frugiperda [36] = assay: Insecticidal activity against first-instar larval stage of Spodoptera frugiperda (fall armyworm) fed with compound incorporated diet assessed as mortality at 50 to 100 ug/ml after 7 days; format: functional
Spodoptera frugiperda [37] = assay: Insecticidal activity against first-instar larval stage of Spodoptera frugiperda (fall armyworm) fed with compound incorporated diet assessed as mortality at 40 ug/ml after 7 days; format: functional, organism-based

| SMILES | mortality at 35 µg/mL (Spodoptera frugiperda [1]) [%] | Length gained relative to control (Spodoptera frugiperda [2]) [%] | Weight gain relative to control (Spodoptera frugiperda [3]) [%] | mortality at 10 µg/mL (Spodoptera frugiperda [4]) [%] | Activity (Spodoptera frugiperda [5]) | Growth_index (Spodoptera frugiperda [6]) | mortality at 20 µg/mL (Drosophila melanogaster [7]) [%] | Activity (Spodoptera frugiperda [8]) [%] | mortality at 50 µg/mL (Spodoptera frugiperda [9]) [%] | mortality at 35 µg/mL (Spodoptera frugiperda [10]) [%] | inhibition at 20 µg/mL (Spodoptera frugiperda [11]) [%] | mortality at 20 µg/mL (Spodoptera frugiperda [12]) [%] | inhibition at 35 µg/mL (Spodoptera frugiperda [13]) [%] | Length gained relative to control (Spodoptera frugiperda [14]) [%] | mortality at 10 µg/mL (Spodoptera frugiperda [16]) [%] | Growth_index (Spodoptera frugiperda [17]) | mortality at 10 µg/mL (Drosophila melanogaster [18]) [%] | Weight gain (% of control) (Spodoptera frugiperda [19]) [%] | Activity (Spodoptera frugiperda [20]) [%] | Length gained (% of control) (Spodoptera frugiperda [21]) [%] | also measured |
| --- | --- | --- | --- | --- | --- | --- | --- | --- | --- | --- | --- | --- | --- | --- | --- | --- | --- | --- | --- | --- | --- |
| CC(C)c1ccc2c(c1)CC[C@H]1[C@](C)(CO)CCC[C@]21C [POMIFERIN A] | 25 | 37.4 | 38.2 | 41.7 | Active | 0.97 | 67 | 42.3 | 83.3 | 63 | 0 | 15 | 0 | 59.4 | 5.6 | 0.99 | 13.3 | 65.8 | 56.2 | 85.6 | LD50 (Spodoptera frugiperda [15]): 17.5 µg/mL; inhibition (Spodoptera frugiperda [22]): Active; Activity (Spodoptera frugiperda [23]): 89.5%; Length gain relative to control (Spodoptera frugiperda [24]): 33.3%; mortality at 5 µg/mL (Spodoptera frugiperda [25]): 4.16%; Growth_index (Spodoptera frugiperda [26]): 0.71; Activity (Spodoptera frugiperda [27]): 81.3%; Growth_index (Spodoptera frugiperda [28]): 0.96; Activity (Spodoptera frugiperda [29]): 30%; mortality at 20 µg/mL (Spodoptera frugiperda [30]): 46.8%; Activity (Spodoptera frugiperda [31]): 75%; mortality at 50 µg/mL (Drosophila melanogaster [32]): 77%; Activity (Spodoptera frugiperda [33]): 41.8%; Activity (Spodoptera frugiperda [34]): 88.3% |
| C[C@H]1[C@H](C)CC[C@]2(C(=O)O)CC[C@]3(C)C(=CC[C@@H]4[C@@]5(C)CC[C@H](O)C(C)(C)[C@@H]5CC[C@]43C)[C@H]12 [URSOLIC ACID] | 100 | 0 | 0 | 16.7 | Active | 0.93 | 15.1 | 49.2 | 79.1 | 46.8 | 0 | 91.7 | 0 | 48.4 | 81.3 | 0.98 | 7 | 47.4 | 52.5 | 57.2 | inhibition (INH) (Spodoptera frugiperda [35]): 0%; mortality (Spodoptera frugiperda [36]): 100%; inhibition (Spodoptera frugiperda [22]): Active; Activity (Spodoptera frugiperda [23]): 81.5%; Length gain relative to control (Spodoptera frugiperda [24]): 3.4%; mortality at 5 µg/mL (Spodoptera frugiperda [25]): 79.1%; Activity (Spodoptera frugiperda [27]): 53.3%; Growth_index (Spodoptera frugiperda [28]): 0.29; Activity (Spodoptera frugiperda [29]): 30%; mortality at 20 µg/mL (Spodoptera frugiperda [30]): 29.2%; Activity (Spodoptera frugiperda [31]): 73%; mortality at 50 µg/mL (Drosophila melanogaster [32]): 65.2%; Activity (Spodoptera frugiperda [33]): 28.6%; mortality (Spodoptera frugiperda [37]): Active; Activity (Spodoptera frugiperda [34]): 68.6% |
| C=C[C@]1(C)CC[C@H]2C(=CC[C@@H]3[C@](C)(CO)CC[C@@H]4C[C@@]432)C1 | 100 | 0 | 0 | 37.3 | Active | 0.41 | 98 | 1.4 | 100 | 98.4 | 0 | 100 | 0 | 30.8 | 68.6 | 0.45 | 30 | 10.6 | 6.8 | 55 | LD50 (Spodoptera frugiperda [15]): 3.02 µg/mL; inhibition (INH) (Spodoptera frugiperda [35]): 0%; mortality (Spodoptera frugiperda [36]): 100%; inhibition (Spodoptera frugiperda [22]): Active; Activity (Spodoptera frugiperda [23]): 25.1%; Length gain relative to control (Spodoptera frugiperda [24]): 0%; mortality at 5 µg/mL (Spodoptera frugiperda [25]): 55.8%; Growth_index (Spodoptera frugiperda [26]): 0.09; Activity (Spodoptera frugiperda [27]): 17.1%; Growth_index (Spodoptera frugiperda [28]): 0.19; Activity (Spodoptera frugiperda [29]): 30%; mortality at 20 µg/mL (Spodoptera frugiperda [30]): 55.8%; Activity (Spodoptera frugiperda [31]): 27%; Activity (Spodoptera frugiperda [33]): 0%; mortality (Spodoptera frugiperda [37]): Active; Activity (Spodoptera frugiperda [34]): 68.7% |
| C=CC(C)(C)C1=C(O)C(=O)c2ccccc2C1=O | 100 | 4.1 | 7.8 | 83.3 | Active | 0.71 | 65 | 5 | 100 | 95.8 | 0 | 98 | 0 | 39.8 | 41.7 | 0.69 | 30 | 27.7 | 15.9 | 64.3 | LD50 (Spodoptera frugiperda [15]): 3.64 µg/mL; inhibition (INH) (Spodoptera frugiperda [35]): 0%; mortality (Spodoptera frugiperda [36]): 100%; inhibition (Spodoptera frugiperda [22]): Active; Activity (Spodoptera frugiperda [23]): 47.4%; Length gain relative to control (Spodoptera frugiperda [24]): 0%; mortality at 5 µg/mL (Spodoptera frugiperda [25]): 66.7%; Growth_index (Spodoptera frugiperda [26]): 0.09; Activity (Spodoptera frugiperda [27]): 29.3%; Growth_index (Spodoptera frugiperda [28]): 0.12; Activity (Spodoptera frugiperda [29]): 30%; mortality at 20 µg/mL (Spodoptera frugiperda [30]): 91.7%; Activity (Spodoptera frugiperda [31]): 35.5%; mortality at 50 µg/mL (Drosophila melanogaster [32]): 100%; Activity (Spodoptera frugiperda [33]): 4.1%; mortality (Spodoptera frugiperda [37]): Active; Activity (Spodoptera frugiperda [34]): 50.8% |
